Consider 12 compounds from patent publication US20230192700A1, “PYRAZOLOPYRAZINES ACTING ON CANCERS VIA INHIBITION OF CDK12” (Bayer Aktiengesellschaft, priority 2020, published 2023).

Molecules are shown by their SMILES. A value given as a limit tells only on which side of the number the result lay.

T1 sequence (Q9NYV4 with tags, fused parts or gaps): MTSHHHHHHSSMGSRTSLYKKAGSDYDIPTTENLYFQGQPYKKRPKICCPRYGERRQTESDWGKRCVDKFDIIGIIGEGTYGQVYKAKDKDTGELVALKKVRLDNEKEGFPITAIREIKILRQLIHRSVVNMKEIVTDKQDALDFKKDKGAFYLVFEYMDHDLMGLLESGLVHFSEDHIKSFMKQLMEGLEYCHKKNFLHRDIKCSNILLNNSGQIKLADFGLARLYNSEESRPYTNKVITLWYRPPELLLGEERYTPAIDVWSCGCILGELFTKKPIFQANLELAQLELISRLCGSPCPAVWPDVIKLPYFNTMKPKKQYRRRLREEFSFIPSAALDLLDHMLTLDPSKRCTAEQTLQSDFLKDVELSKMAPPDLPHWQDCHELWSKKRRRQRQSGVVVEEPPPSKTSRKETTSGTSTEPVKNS
T1 sequence (O75909 with tags, fused parts or gaps partner limits assumed): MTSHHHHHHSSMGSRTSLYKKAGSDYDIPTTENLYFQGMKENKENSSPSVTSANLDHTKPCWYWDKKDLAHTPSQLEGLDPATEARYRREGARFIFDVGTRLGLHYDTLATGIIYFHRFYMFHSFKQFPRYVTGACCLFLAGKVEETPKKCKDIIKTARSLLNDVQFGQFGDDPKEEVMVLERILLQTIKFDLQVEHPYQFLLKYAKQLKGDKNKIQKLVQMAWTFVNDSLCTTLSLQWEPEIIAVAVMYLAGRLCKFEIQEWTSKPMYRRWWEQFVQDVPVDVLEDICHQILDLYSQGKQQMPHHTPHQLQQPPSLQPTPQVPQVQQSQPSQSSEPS

The assay has as its target T1, CDK12/CyclinK (Homo sapiens, UniProt Q9NYV4).
T1 construct: His-CDK12 (aa Q696-S1082); made in house; host or cells: Hi-5 insect cells (baculovirus co-infection with CycK and yeast CAK1)
The assay can be described thus: CDK12/CycK high ATP kinase assay (TR-FRET). The assay is classed as biochemical. The note with it: 2 mM ATP (high ATP); median; read-out: CDK12/CyclinK, 2 mM ATP (high ATP), IC50 - [mol/l] (median). A digest of the protocol: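 Human His-tagged CDK12/CycK (about 0.75 nM) preincubated with compound 15 min, then reacted 60 min at 22 °C with 2 mM ATP and 1 µM biotinylated peptide in HEPES pH 7.5 buffer. Phospho-Ser62 c-Myc epitope detected by TR-FRET (665/620 nm ratio); data normalised to no-inhibitor and no-enzyme controls.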
(In general: In TR-FRET formats the signal depends on donor and acceptor labels being close together.)
Consider `CN1CCC(n2nc(NCc3nc4cc(F)c(F)cc4[nH]3)c3ncc(C4CC4)nc32)CC1` [Example 30, 6-cyclopropyl-N-[(5,6-difluoro-1H-benzimidazol-2-yl)methyl]-1-(1-methylpiperidin-4-yl)-1H-pyrazolo[3,4-b]pyrazin-3-amine], for which the IC50 is above 20 µM. In the case of `CN1CCC(n2nc(NCc3nc4ccccc4[nH]3)c3ncc(C4CC4)nc32)C1` (racemic) [Example 35, (±)-N-[(1H-benzimidazol-2-yl)methyl]-6-cyclopropyl-1-(1-methylpyrrolidin-3-yl)-1H-pyrazolo[3,4-b]pyrazin-3-amine], the IC50 is above 20 µM. Take `Fc1ccc2[nH]c(CNc3nn(C4CCOCC4)c4nc(C5CC5)cnc34)nc2c1F` [Example 32, 6-cyclopropyl-N-[(4,5-difluoro-1H-benzimidazol-2-yl)methyl]-1-(oxan-4-yl)-1H-pyrazolo[3,4-b]pyrazin-3-amine]: the IC50 turned out to be 13.8 µM. With `CN1CCC(n2nc(NCc3nc4ccccc4[nH]3)c3ncc(C4CC4)nc32)CC1` [Example 1, N-[(1H-benzimidazol-2-yl)methyl]-6-cyclopropyl-1-(1-methylpiperidin-4-yl)-1H-pyrazolo[3,4-b]pyrazin-3-amine], the IC50 is above 20 µM. Take `c1ccc2[nH]c(CNc3nn(CC4CCC4)c4nc(C5CC5)cnc34)nc2c1` [Example 75, N-[(1H-benzimidazol-2-yl)methyl]-1-(cyclobutylmethyl)-6-cyclopropyl-1H-pyrazolo[3,4-b]pyrazin-3-amine]: the IC50 was above 20 µM. Turning to `CN1CCC(n2nc(NCc3nc4ccccc4[nH]3)c3ncc(C4CC4)nc32)C1` (single isomer, unassigned) [Example 79, (−) or (+)-N-[(1H-benzimidazol-2-yl)methyl]-6-cyclopropyl-1-(1-methylpyrrolidin-3-yl)-1H-pyrazolo[3,4-b]pyrazin-3-amine], the IC50 was above 20 µM. Consider `CC1CC(n2nc(NCc3nc4ccccc4[nH]3)c3ncc(C4CC4)nc32)CCN1C` (racemic) [Example 41, (±)-cis/trans-N-[(1H-benzimidazol-2-yl)methyl]-6-cyclopropyl-1-(1,2-dimethylpiperidin-4-yl)-1H-pyrazolo[3,4-b]pyrazin-3-amine], for which the IC50 was above 20 µM. With `CN1CCC(n2nc(NCc3nc4cc(Cl)ccc4[nH]3)c3ncc(C4CC4)nc32)CC1` [Example 22, N-[(5-chloro-1H-benzimidazol-2-yl)methyl]-6-cyclopropyl-1-(1-methylpiperidin-4-yl)-1H-pyrazolo[3,4-b]pyrazin-3-amine], the IC50 was above 20 µM. As to `Fc1ccc2[nH]c(CNc3nn(C4CCOCC4)c4nc(C5CC5)cnc34)nc2c1` [Example 53, 6-cyclopropyl-N-[(5-fluoro-1H-benzimidazol-2-yl)methyl]-1-(oxan-4-yl)-1H-pyrazolo[3,4-b]pyrazin-3-amine], the IC50 is above 10 µM. As for `COCCC(C)n1nc(NCc2nc3ccccc3[nH]2)c2ncc(C3CC3)nc21` (single isomer, unassigned; (+)) [Example 59, (+)-N-[(1H-benzimidazol-2-yl)methyl]-6-cyclopropyl-1-[4-methoxybutan-2-yl]-1H-pyrazolo[3,4-b]pyrazin-3-amine], the IC50 is above 20 µM. `Cc1c(F)ccc2[nH]c(CNc3nn(C4CCN(C)CC4)c4nc(C5CC5)cnc34)nc12` [Example 26, 6-cyclopropyl-N-[(5-fluoro-4-methyl-1H-benzimidazol-2-yl)methyl]-1-(1-methylpiperidin-4-yl)-1H-pyrazolo[3,4-b]pyrazin-3-amine]: the IC50 is above 20 µM. `CC1(C)CC(n2nc(NCc3nc4ccccc4[nH]3)c3ncc(C4CC4)nc32)CC(C)(C)O1` [Example 52, N-[(1H-benzimidazol-2-yl)methyl]-6-cyclopropyl-1-(2,2,6,6-tetramethyloxan-4-yl)-1H-pyrazolo[3,4-b]pyrazin-3-amine]: the IC50 was above 20 µM.
